Results on ten compounds are retold here after patent publication US4868181A, “1,4-dihydropyridine derivatives with calcium agonist and alpha1 -antagonist activity” (E. I. Du Pont de Nemours and Company, priority 1987, dated 1989).

By IC50 is commonly meant the midpoint of a concentration-inhibition curve.

The subject of data set [1] is calcium ions influx. Particulars: cited from earlier work.
Data set [2] deals with coronary vasoconstriction. The conditions noted are these: cited from earlier work.
Data set [3] concerns guinea pig left atria. The data set can be described thus: Positive inotropic effect in guinea pig left atria. Particulars: 37°; for EC50: left atria paced at 2Hz, cumulative addition to maximum 10^-4, read-out: EC50 (concentration that increases DT by 50% above the control DT); for Intrinsic Activity (ratio of the maximum effect of the test compound to that of Bay K 8644): relative to Bay K 8644, left atria paced at 2Hz. As for the experimental part: Guinea pigs are killed by cervical dislocation. The left atria are removed and mounted at 1 gm resting tension in tissue baths containing oxygenated Krebs bicarbonate solution which is kept at 37°. The left atria are electrically paced at 2Hz with square wave pulses of 1 msec duration. The voltage is set at 1.5× threshold level.
After a one hour equilibration period, control values for developed tension (DT, gm) are recorded. Test compounds are then added to the baths, in a cumulative manner to a maximum concentration of 10^-4, to obtain a concentration-response curve. Treatment values of DT are obtained after the rug effect has reached a plateau and the exposure time for each concentration is 5-8 minutes. Percent change of the treatment value from the control value is calculated at each concentration of the test compound.

In data set [4] the target is T1, Ca^2 + channels (Rattus norvegicus, UniProt P22002).
T1 construct: rat cardiac microsomes (source of Ca^2 + channels); from tissue; host or cells: rat cardiac microsomes
The data set can be described thus: [^3 H]-Nitrendipine binding assay (affinity for calcium channels). The conditions noted are these: rat cardiac microsomes, 0.5 nM [^3 H]-nitrendipine, 60 minutes at 25°. As for the experimental part:
[^3 H]-Nitrendipine binding assay was carried out according to the method described by G. T. Bolger, et al., Biochem. Biophys. Res. Comm., 104, 1604-1609, 1982 (1). The reaction mixture contained rat cardiac microsomes (source of Ca^2 + channels), 0.5 nM [^3 H]-nitrendipinewith or without potential displacer in Tris buffer. The mixture was incubated for 60 minutes at 25° and subsequently terminated by rapid filtration through a glass fiber-filter. Membrane-bound [^3 H]-nitrendipine trapped in the filter was quantitated by scintillation counting. The inhibitory concentration (IC50) of potential displacer which gives 50% displacement of the total specifically bound [^3 H]-nitrendipine is presented as a measure of the affinity of such compound for the Ca^2 + channel.

Data set [5] deals with alpha1 -adrenoceptors. The data set can be described thus: [^3 H]-prazosin binding assay (affinity for alpha1-adrenoceptors). Particulars: rat brain membranes, 0.2 nM [^3 H]-prazosin, 60 minutes at 25°. The protocol: The [^3 H]-prazosin binding assay was carried out according to the method described by Timmermans, P. B. M. W. M., Schoop, A. M. C., and Van Zwieten, P. A.: Biochem Pharmacol., 31, 899-905, 1982 (1). The reaction mixture contained partially purified rat brain membranes (source of alpha1 -adrenoceptors), 0.2 nM [^3 H]-prazosin with or without potential displacer in Tris buffer. The mixture was incubated for 60 minutes at 25° and subsequently terminated by rapid filtration through glass fiber-filter. Receptor-bound [^3 H]-prazosin trapped in the filter was quantitated by scintillation counting. The inhibitory concentration (IC50) of potential displacer which gives 50% displacement of the total specifically bound [^3 H]-prazosin is presented as a measure of the affinity of such compound for the alpha1 -adrenoceptor.

T1 sequence (P22002 whole entry, other chains not shown): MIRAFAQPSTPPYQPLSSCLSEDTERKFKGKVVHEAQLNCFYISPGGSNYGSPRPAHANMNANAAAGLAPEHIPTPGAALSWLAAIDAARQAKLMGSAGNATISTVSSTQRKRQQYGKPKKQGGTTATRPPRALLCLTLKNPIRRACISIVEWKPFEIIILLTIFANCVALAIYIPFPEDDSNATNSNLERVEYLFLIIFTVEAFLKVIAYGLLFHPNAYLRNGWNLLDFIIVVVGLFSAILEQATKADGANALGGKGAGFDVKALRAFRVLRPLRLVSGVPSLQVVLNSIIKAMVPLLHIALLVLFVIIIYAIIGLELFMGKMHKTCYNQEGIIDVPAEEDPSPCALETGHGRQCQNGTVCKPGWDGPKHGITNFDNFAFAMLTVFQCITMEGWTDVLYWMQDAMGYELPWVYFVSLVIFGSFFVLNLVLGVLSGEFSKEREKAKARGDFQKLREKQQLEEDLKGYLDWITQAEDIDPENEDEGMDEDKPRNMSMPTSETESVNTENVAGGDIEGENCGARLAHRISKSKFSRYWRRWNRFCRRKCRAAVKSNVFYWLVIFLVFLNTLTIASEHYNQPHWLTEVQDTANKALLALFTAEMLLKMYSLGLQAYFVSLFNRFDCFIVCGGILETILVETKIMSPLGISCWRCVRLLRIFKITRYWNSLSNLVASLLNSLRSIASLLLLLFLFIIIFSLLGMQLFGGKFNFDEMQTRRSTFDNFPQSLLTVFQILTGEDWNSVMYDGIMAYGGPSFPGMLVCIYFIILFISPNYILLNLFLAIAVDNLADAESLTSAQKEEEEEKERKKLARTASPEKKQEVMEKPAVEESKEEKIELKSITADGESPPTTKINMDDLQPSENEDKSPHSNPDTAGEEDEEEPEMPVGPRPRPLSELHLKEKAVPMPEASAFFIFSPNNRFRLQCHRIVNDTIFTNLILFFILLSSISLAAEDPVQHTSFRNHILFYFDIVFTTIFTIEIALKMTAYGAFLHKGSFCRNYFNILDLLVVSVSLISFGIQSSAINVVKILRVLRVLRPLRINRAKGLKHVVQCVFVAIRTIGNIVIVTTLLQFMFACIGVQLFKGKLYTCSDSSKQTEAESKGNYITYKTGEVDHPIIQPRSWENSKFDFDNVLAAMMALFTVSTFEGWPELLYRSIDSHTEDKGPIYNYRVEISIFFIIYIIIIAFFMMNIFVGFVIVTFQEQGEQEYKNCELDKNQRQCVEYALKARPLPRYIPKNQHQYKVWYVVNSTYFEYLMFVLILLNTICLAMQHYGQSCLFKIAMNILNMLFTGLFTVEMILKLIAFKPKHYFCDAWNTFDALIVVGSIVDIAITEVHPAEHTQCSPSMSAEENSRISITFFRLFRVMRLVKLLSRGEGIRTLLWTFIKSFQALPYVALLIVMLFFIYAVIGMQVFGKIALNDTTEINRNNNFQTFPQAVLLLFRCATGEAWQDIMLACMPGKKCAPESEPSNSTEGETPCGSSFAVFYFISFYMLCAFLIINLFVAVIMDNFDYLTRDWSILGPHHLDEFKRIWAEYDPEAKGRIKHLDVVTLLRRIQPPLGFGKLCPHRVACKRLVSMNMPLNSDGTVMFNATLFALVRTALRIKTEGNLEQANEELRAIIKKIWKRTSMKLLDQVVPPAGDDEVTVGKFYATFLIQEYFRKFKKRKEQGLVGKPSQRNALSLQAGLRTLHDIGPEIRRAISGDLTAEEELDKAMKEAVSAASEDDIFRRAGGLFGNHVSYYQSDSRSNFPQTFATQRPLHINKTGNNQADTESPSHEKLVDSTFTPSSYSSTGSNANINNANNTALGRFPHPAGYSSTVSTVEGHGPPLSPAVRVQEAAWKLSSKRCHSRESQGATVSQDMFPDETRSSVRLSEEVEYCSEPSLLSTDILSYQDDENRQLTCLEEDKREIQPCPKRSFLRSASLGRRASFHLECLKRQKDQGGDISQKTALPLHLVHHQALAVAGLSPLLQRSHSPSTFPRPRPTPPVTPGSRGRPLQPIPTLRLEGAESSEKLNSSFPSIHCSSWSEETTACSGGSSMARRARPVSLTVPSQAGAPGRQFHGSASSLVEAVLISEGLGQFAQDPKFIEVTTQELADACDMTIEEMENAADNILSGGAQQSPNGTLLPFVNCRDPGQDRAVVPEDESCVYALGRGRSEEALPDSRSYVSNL
T1 sequence (P54290 25-944 partner limits assumed, other chains not shown): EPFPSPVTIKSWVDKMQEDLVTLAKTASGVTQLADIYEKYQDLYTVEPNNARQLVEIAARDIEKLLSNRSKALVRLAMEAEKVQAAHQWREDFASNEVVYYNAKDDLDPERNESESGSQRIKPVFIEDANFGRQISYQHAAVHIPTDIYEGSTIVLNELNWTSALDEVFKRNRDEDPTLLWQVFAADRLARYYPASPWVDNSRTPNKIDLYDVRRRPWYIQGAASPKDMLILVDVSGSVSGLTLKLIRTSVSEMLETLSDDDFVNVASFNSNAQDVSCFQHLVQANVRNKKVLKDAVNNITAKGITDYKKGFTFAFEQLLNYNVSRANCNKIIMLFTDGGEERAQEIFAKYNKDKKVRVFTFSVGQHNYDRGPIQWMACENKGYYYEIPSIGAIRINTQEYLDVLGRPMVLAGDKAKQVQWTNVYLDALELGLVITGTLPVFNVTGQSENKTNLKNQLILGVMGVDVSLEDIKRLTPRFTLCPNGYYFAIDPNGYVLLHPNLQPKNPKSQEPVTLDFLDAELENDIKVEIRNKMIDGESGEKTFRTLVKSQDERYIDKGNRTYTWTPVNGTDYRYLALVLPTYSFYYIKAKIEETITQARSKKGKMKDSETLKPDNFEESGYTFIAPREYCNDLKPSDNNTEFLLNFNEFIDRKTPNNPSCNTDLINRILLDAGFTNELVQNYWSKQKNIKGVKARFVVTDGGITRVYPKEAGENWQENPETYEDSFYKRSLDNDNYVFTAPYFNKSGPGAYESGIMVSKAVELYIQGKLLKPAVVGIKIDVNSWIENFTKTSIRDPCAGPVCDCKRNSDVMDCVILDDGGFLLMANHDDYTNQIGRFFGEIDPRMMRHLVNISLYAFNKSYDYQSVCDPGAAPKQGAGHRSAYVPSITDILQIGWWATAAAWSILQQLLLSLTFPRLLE
T1 sequence (P54290 945-1091 partner limits assumed, other chains not shown): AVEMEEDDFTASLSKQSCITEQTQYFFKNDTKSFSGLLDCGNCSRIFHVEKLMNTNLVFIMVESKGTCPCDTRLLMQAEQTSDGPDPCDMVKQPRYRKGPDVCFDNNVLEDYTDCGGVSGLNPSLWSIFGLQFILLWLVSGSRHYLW

As for `COC(=O)C1=C(C)NC(C)=C([N+](=O)[O-])C1c1ccccc1C(F)(F)F` (centres unmarked) [Bay K8644], in data set [1], the “calcium ion influx and resulting effects” value is “promote an influx of calcium ions, therefore producing positive inotropic and vasoconstrictor effects”. Besides, the “potency as a calcium agonist relative to CGP28392” value in data set [1] (compared with CGP28392) was “more than 10 times”. Further, in data set [2], the toxicity entry is “toxic because it causes coronary vasoconstriction”. Besides, in data set [3], the EC50 was 0.15 µM and the “Intrinsic Activity (ratio of the maximum effect of the test compound to that of Bay K 8644)” value is given as 100%.

For the compound `CCOC(=O)C1=C(C)NC2=C(C(=O)OC2)C1c1ccccc1OC(F)F` (centres unmarked) [CGP28392], the “calcium ion influx and resulting effects” value in data set [1] was “promote an influx of calcium ions, therefore producing positive inotropic and vasoconstrictor effects”.

On to `CCOC(=O)C1=C(C)NC(C)=C([N+](=O)[O-])C1c1ccccc1OCCCCN1CCN(c2ccccc2OC)CC1` (centres unmarked) [Example 120], for which the IC50 in data set [4] came to 470 nM; in data set [5] it was 440 nM. The EC50 in data set [3] stood at 30 µM. For the same compound, the “Intrinsic Activity (ratio of the maximum effect of the test compound to that of Bay K 8644)” value in data set [3] was 50%.

On to `COC(=O)C1=C(C)NC(C)=C([N+](=O)[O-])C1c1cccc(OCCCN2CCN(C(c3ccc(F)cc3)c3ccc(F)cc3)CC2)c1` (centres unmarked) [Example 123], for which the figures for the IC50 in data set [4] and in data set [5] were 1700 nM and 4500 nM, respectively. Moreover, in data set [3], the EC50 is > 100 µM. In data set [3], the “Intrinsic Activity (ratio of the maximum effect of the test compound to that of Bay K 8644)” value was found to be 0%.

`COC(=O)C1=C(C)NC(C)=C([N+](=O)[O-])C1c1cccc(OCC=CCN2CCN(c3ccccc3OC)CC2)c1` (centres unmarked) [Example 125]: the IC50 in data set [4] came to 1400 nM. For the same compound, the IC50 in data set [5] came to 440 nM. In addition, in data set [3], the EC50 is > 100 µM and the “Intrinsic Activity (ratio of the maximum effect of the test compound to that of Bay K 8644)” value is reported as 0%.

Turning to `COC(=O)C1=C(C)NC(C)=C([N+](=O)[O-])C1c1ccccc1OCCCCCCN1CCN(c2ccccc2OC)CC1` (centres unmarked) [Example 129], the figures for the IC50 in data set [4] and in data set [5] were 360 nM and 380 nM, respectively. Moreover, in data set [3], the EC50 was 2 µM. Further, the “Intrinsic Activity (ratio of the maximum effect of the test compound to that of Bay K 8644)” value in data set [3] came out at 15%.

In the case of `COC(=O)C1=C(C)NC(C)=C([N+](=O)[O-])C1c1cccc(OCCCCCCN2CCN(c3ccccc3OC)CC2)c1` (centres unmarked) [Example 130], the values for the IC50 in data set [4] and in data set [5] were 380 nM and 330 nM, respectively. Also, the EC50 in data set [3] was determined as 3 µM. Besides, in data set [3], the “Intrinsic Activity (ratio of the maximum effect of the test compound to that of Bay K 8644)” value amounted to 25%.

`COC(=O)C1=C(C)NC(C)=C([N+](=O)[O-])C1c1cccc([N+](=O)[O-])c1OCCCN1CCN(c2ccccc2OC)CC1` (centres unmarked) [Example 139]: the values for the IC50 in data set [4] and in data set [5] were 120 nM and 140 nM, respectively. Moreover, the EC50 in data set [3] was > 100 µM. The “Intrinsic Activity (ratio of the maximum effect of the test compound to that of Bay K 8644)” value in data set [3] amounted to 0%.

`COC(=O)C1=C(C)NC(C)=C([N+](=O)[O-])C1c1cccc([N+](=O)[O-])c1OCCCCCN1CCN(c2ccccc2OC)CC1` (centres unmarked) [Example 140]: the IC50 in data set [4] came to 160 nM. Further, the IC50 in data set [5] stood at 180 nM. In data set [3], the EC50 was > 100 µM and the “Intrinsic Activity (ratio of the maximum effect of the test compound to that of Bay K 8644)” value turned out to be 0%.

As for `COC(=O)C1=C(C)NC(C)=C([N+](=O)[O-])C1c1cc(Br)ccc1OCCCCN1CCN(c2ccccc2OC)CC1` (centres unmarked) [Example 142], the IC50 in data set [4] is 180 nM. This compound yielded an IC50 in data set [5] of 250 nM. In addition, in data set [3], the EC50 was > 100 µM and the “Intrinsic Activity (ratio of the maximum effect of the test compound to that of Bay K 8644)” value is reported as 0%.
